Measurements: patent US5498624A, “Selected pyrazolyl derivatives” (Monsanto Company, priority 1995, dated 1996)
Read-outs that look alike come from different tables or passages of the source.

Assays:
[1] = system: Erysiphe graminis f. sp. tritici; experiment: Wheat Powdery Mildew Foliar Assay (WPM Prot); assay type: in vivo
Method: A) Pathogen/Inoculum Production--Leaf material infected with the wheat powdery mildew fungus, Erysiphe graminis f. sp. tritici, is maintained continuously on wheat seedlings, cv. Caldewell.
(B) Host Propagation, (C) Compound Preparation and (D) Compound Application follow as per Example 1.
(E) Inoculation/Incubation--Inoculation of the test plants takes place 24 hours after compound application. Inoculation is accomplished by gently shaking plants previously infected with the Erysiphe graminis f. sp. tritici fungus over the test plants. This process liberates a cloud of spores which effectively and uniformly fall onto the test plants. After inoculation the plants are returned to the environmental conditions under which they were grown.
(F) Evaluation and (G) Data follow as per Example 1. The percent protection values for the compounds of the present invention are as set out in the Table below.

[2] = system: Pseudocercosporella herpotrichoides var. tritici; experiment: Wheat True Eyespot In Vitro Assay (WES In Vitro); assay type: cell-based; set-up: key: 0: no inhibition of mycelial growth; 1: slight inhibition of mycelial growth; 2: moderate inhibition of mycelial growth; 3: strong inhibition of mycelial growth; conditions: 3 days at 19° C.
Method: A) Pathogen/Inoculum Production--A mycelial transfer of Pseudocercosporella herpotrichoides var. tritici is placed onto potato dextrose agar plates and allowed to grow for 40 days at 20 ° C., without light. Five agar discs are taken from the actively growing culture and are placed equidistant, mycelial side down, onto a water agar plate, and incubated at 10 ° C. with 10 hours of fluorescent light per day. After 5 days of incubation, sporulation on the transferred discs begins, and plates are flooded with 3-5 mls sterile deionized water. One-half ml aliquots are taken from the resulting spore suspension and placed on new water agar plates. Spores are spread across plates using a bent glass rod and incubated at 10 ° C. with 10 hour fluorescent light periods per day. In 5-10 days, a lawn of spores is produced and can be "harvested".
B) Compound Preparation and Test Execution--200 μl of 1/4 strength potato dextrose broth is placed in each well of a 96 well microtiter plate. […] The commercial standard used is prochloraz at equivalent rates.
C) Inoculation/Incubation--50 μl of a 1×10^6 spores/ml suspension harvested using the method above is added to each well. The 96 well plates are incubated for 3 days at 19° C. in the dark.
(§1) D) Evaluation--After incubation, each well is visually assessed for growth inhibition on the following 0-3 scale:
(§2) 0=no inhibition of mycelial growth
(§3) 1=slight inhibition of mycelial growth
(§4) 2=moderate inhibition of mycelial growth
(§5) 3=strong inhibition of mycelial growth

Succinate Dehydrogenase = experiment: Enzyme Inhibition I-50 (WGB): Succinate Dehydrogenase Assay using Septoria nodorum mitochondria; assay type: biochemical
Method: Succinate Dehydrogenase Assay using Septoria nodorum mitochondria--Septorianodorum mycelia are prepared from spores via shake culture for 40-48 hours in 3% malt extract at room temperature. The mycelia are harvested by centrifugation and the pellets obtained are stored in the -80° C. freezer until use.
Mitochondria are isolated by a method adapted from White (Biochem. Biophys. Res. Commun. 44 (1971) 1212-19). Fifteen to twenty grams of frozen mycelia are resuspended in a 250 mL medium containing 0.25M sucrose, 5 mM tetrasodium ethylenediamine tetraacetic acid (Na4 EDTA), pH 7.0 containing 1.5 g/liter bovine serum albumin (BSA) and placed in a Bead Beater chamber (BioSpec Products, Bartlesville, Okla.). Zirconium oxide beads (0.5 mm) are added to finish filling the chamber. Four 30s beats separated by 2 rain temperature equilibration periods on ice are used to break the mycelia. The homogenate is centrifuged for 20 min at 3000×g and 4° C. to remove debris. The supernatant is recentrifuged at 20,000×g for 20 min at 4° C. The resulting pellet is resuspended in BSA-free sucrose/EDTA medium (40 mL) using a glass tissue homogenizer and teflon pestle and recentrifuged at 27,000×g for 15 min at 4° C. The pellet is resuspended in BSA-free sucrose/EDTA medium (~3 mL) and used for SDH assays.
The enzyme activity is measured at […] in a solution containing 50 mM potassium phosphate, pH7.2; 1 mM potassium cyanide; 45 μM 2,6-dichlorophenol indophenol (DCPIP) and 17 mM disodium succinate in a final volume of 1 mL with a Perkin-Elmer Lambda 7 ultraviolet-visible spectrophotometer. The test compounds are added as acetone solutions (final concentration of acetone less than or equal to 1%(v/v)). The mitochondrial preparations are used to initiate the reaction. All rates are corrected for succinate-independent dye reduction. Semilog plots of percentage inhibition versus test compound concentration are used to determine inhibition expressed as I50 (μM) which is the concentration required to inhabit the rate of DCPIP reduction by 50%. The commercial fungicide carboxin is used as a standard throughout [I50 (μM)=5.0±2.2; n=52].

Septoria nodorum [3] = experiment: Wheat Glume Blotch (WGB) In Vitro; assay type: cell-based; set-up: key: 0: no inhibition of mycelial growth; 1: slight inhibition of mycelial growth; 2: moderate inhibition of mycelial growth; 3: strong inhibition of mycelial growth; conditions: 4-6 days at 25° C.
Method: A) Pathogen/Inoculum Production--The wheat glume blotch fungus, Septoria nodorum, is cultured on yeast/malt agar at 22° C. and 12 hours fluorescent light. Several sterile loops full of mature pycnidia produced on a 7 day old culture plates are added to 30 mls of 1/4 strength potato dextrose broth. After 15 minutes the suspension is stirred, and adjusted to a concentration of 3×10^5 spores/mi.
B) Compound Preparation and Test Execution--200 μl of 1/4 strength potato dextrose broth is placed in each well of a 96 well microtiter plate. […] The commercial standard used is flusilazole, at equivalent rates.
C) Inoculation/Incubation--50 μl of a 3×10^5 spores/ml suspension obtained using the method above is added to each well. The 96-well plate is incubated for 4-6 days at 25° C., 12 hours fluorescent light.
as §1, §2, §3, §4, §5

Septoria nodorum [4] = experiment: Wheat Glume Blotch Foliar Assay, protectant (WGB Prot); assay type: in vivo; conditions: 10 ppm, application two days pre-inoculation
Method: A) Host Propagation--Winter wheat plants, cv. Caldwell, are grown in 5.7 cm^2 pots, three per pot, and maintained in a growth chamber set at 20° C., 80% RH with a 12 hour photoperiod.
B) Compound Preparation--A 1.0% stock solution of each of the compounds of the present invention is first prepared utilizing an appropriate solvent such as acetone, water or DMSO. This stock is then used to prepare the final spray solution which contains the compound at the desired dosage, eg 100 ppm and 20 ppm, acetone at 20% v/v, Tween®20 at .05% w/v, and water at about 80%. Commercial standard used is tebuconazole at equivalent rates.
C) Compound Application, Seedlings are sprayed at the two-leaf stage (GS 12) using a DeVilbiss Model 152 hand operated sprayer set at 15-20 psi. Six ml of the test solution per treatment are applied to three pots. In the protectant assay (EXAMPLE 8), the compound application is made two days pre-inoculation. In the curative assay (EXAMPLE 9), the compound is applied during a brief interruption of the disease incubation period two days post-inoculation.
D) Pathogen Production/Inoculation--The wheat glume blotch fungus, Septoria nodorum, is maintained in the pycnidial state on yeast malt agar (YMA) and transferred weekly by streaking a suspension of conidia obtained from a ten to twelve day old sporulating culture onto fresh YMA plates. The plates are incubated at 20° C. with a 12 hour photoperiod.
Test inoculum is prepared by flooding seven day old culture plates with deionized water amended with Tween®20 (0.1% v/v) and gently scraping the pycnidia to release the extruding masses of conidia. The resulting spore suspension is filtered through two layers of cheese cloth and adjusted to 4×10^6 spores/ml utilizing the Tween®20 solution.
Forty-eight hours after the compound application and prior to inoculation, the test plants are preconditioned for at least one hour in a dark growth chamber set at 20° C. and 100% RH. After the preconditioning period is over, the conidial suspension is applied to run-off using a DiVilbiss hand operated sprayer. The plants are then returned to the preconditioning chamber and incubated at the same settings for 96 hours. Light is supplied to the plants during the last twelve hours of incubation. At the end of the 96 hour period, the plants are returned to the environmental conditions under which they were grown.
E) Test Evaluation--Eight to ten days after removal from the high humidity chamber, or twelve to fourteen days after inoculation, treatments are evaluated by visually estimating the percentage of the leaf area (on the first leaf) covered with lesions. Three ratings are made on each pot which constitutes a replicate. Each replicate then receives a numerical mean by averaging the three values. Percent disease, as well as percent control values are calculated. The percent control values obtained from these assays for the compounds of the present invention are as set out in the Table below.

[5] = system: Botrytis cinerea Mitochondria; conditions: 1 μM concentration; cited from earlier work

## CCO[C@H]1CC[C@H](c2ccccc2NC(=O)c2cn(C)nc2C(F)F)CC1 [Number 7, 1H-pyrazole-4-carboxamide, 3-(difluoromethyl)-N-[2-(4-ethoxycyclohexyl)phenyl]-1-methyl-,trans-]
[1]; 500 ppm foliar protectant
  WPM Prot percent disease control: 96%
[2]; 0.1 ppm
  WES In vitro growth inhibition 0-3 scale: 0
[2]; 0.5 ppm
  WES In vitro growth inhibition 0-3 scale: 0
[2]; 5.0 ppm
  WES In vitro growth inhibition 0-3 scale: 1
Succinate Dehydrogenase; DCPIP reduction, read-out: WGB enzyme I-50
  IC50: 170 nM
Septoria nodorum [3]; 0.1 ppm
  WGB In Vitro growth inhibition 0-3 scale: 0
Septoria nodorum [3]; 0.5 ppm
  WGB In Vitro growth inhibition 0-3 scale: 0
Septoria nodorum [3]; 5.0 ppm
  WGB In Vitro growth inhibition 0-3 scale: 1

## Cn1cc(C(=O)Nc2ccccc2C2CCC(C(F)(F)F)CC2)c(C(F)F)n1 (stereo not drawn) [Number 8]
[1]; 10 ppm foliar protectant
  WPM Prot percent disease control: 91%
Septoria nodorum [4]
  WGB Prot percent control: 85%

## CC1=C(C(=O)Nc2ccccc2)SCCO1 [carboxin, reference compound]
Succinate Dehydrogenase; standard throughout, n=52, read-out: I50
  IC50: 5000 ± 2200 nM
[5]
  respiratory inhibition: 68%
